Measurements: patent US4077999A, “Novel oxime ethers” (Egyt Gyogyszervegyeszeti Gyar, priority 1976, dated 1978)
Where two headings read alike, the source gives them in different places.

Key:
in vivo [1] = settings: mouse
tetrabenazine = assay: Tetrabenazine antagonistic effect, oral administration; type: in vivo; settings: for ED50: Mus musculus, read-out: Tetrabenazine antagonism, ED50
Method: (§1) The tetrabenazine-reserpine antagonistic effect was investigated on mice in groups of ten animals each, at oral administration. The inhibition or suspension of the effect of the observed maximum dose was recorded, and the ED50 values were calculated on the basis of the dose vs. effect curves.

reserpine = assay: Reserpine antagonistic effect, oral administration; type: in vivo; settings: for ED50: Mus musculus, mice, oral administration, read-out: Reserpine antagonism ED50
Method: as §1

ischiadic nerve of rats = assay: Local analgesic effect (method of Truant and d'Amato), motor paralysis and its duration; type: in vivo; settings: for Duration, minutes (o.5%): 0.5 % concentration; for Duration, minutes (o.5%) / Duration, minutes (1.0%): duration of local analgesic effect (motor paralysis); for Duration, minutes (1.0%): 1.0 % concentration; for Relative efficiency: local analgesic effect, referred to Lidocaine
Excerpt: The local analgesic effect was investigated on the ischiadic nerve of rats by means of the method of Truant and d'Amato (Truant, A.P. and Wiedling, S.: Acta Chirurg. Scand. 116, 351 /1958/). Lidocaine served as reference substance. […]

in vivo [2] = assay: in vivo
isolated rat-ileum = assay: Spasmolytic effect on non-striated muscles in isolated rat-ileum (method of Brock et al.); settings: related to papaverine
Method: The spasmolytic effect on non-striated muscles was determined in isolated rat-ileum by the method of Brock et al. (Brock, N., Geks, J. and Lorenz, D.: Arch. Exper. Path. u. Pharmacol. 215, 492 /1952/), applying papaverine as reference substance. In order to characterize the efficiency of an individual compound, the efficiency related to that of papaverine and the LD50 values observed on oral administration are shown in Table II.

nicotine lethality = assay: Inhibition of nicotine lethality (method of Stone), oral administration; type: in vivo, mice; settings: for Therapeutic index: LD50/ED50; for ED50: Mus musculus
[3] = mice, oral administration, Table IV
[4] = inhibition of nicotine lethality
[5] = inhibition of nicotine lethality, mice, oral administration, read-out: ED50
[6] = mice, oral administration, Table III
[7] = oral administration, Table II, read-out: LD50 p.o.

In the case of CN(C)CCC=C1c2ccccc2CCc2ccccc21 [Amitriptylin, reference compound], the LD50 (in vivo [1]; [3]) is reported as 225 mg/kg, the ED50 (tetrabenazine; po) is reported as 13 mg/kg and the Therapeutic index (tetrabenazine; tetrabenazine antagonism) is reported as 17.3. The ED50 (reserpine) was 65 mg/kg and the Therapeutic index (reserpine; reserpine antagonism) was 3.5.
With CN(C)CCCON=C1CCCCC1=Cc1ccccc1 [Example 1, 2-Benzal-1-(3'-dimethylaminopropoxyimino)-cyclohexane] the LD50 (in vivo [1]; po) was 560 mg/kg, the ED50 (tetrabenazine; po) was 80 mg/kg and the Therapeutic index (tetrabenazine; mouse, in vivo, po) was 7.0. For the same compound, the “Duration, minutes (o.5%)” value (ischiadic nerve of rats) was 99 min, the “Duration, minutes (1.0%)” value (ischiadic nerve of rats) was 115 min and the Relative efficiency (ischiadic nerve of rats) was 1.7. For the same compound, the LD50 (in vivo [2]; po) was 560 mg/kg, the ED50 (reserpine) was 27 mg/kg and the Therapeutic index (reserpine; mouse, in vivo, po) was 20.7.
With CCN(CC)CCON=C1CCCCC1=Cc1ccccc1 [Example 2, 2-Benzal-1-(2'-diethylaminoethoxyimino)-cyclohexane] the Relative efficiency (isolated rat-ileum) was 1.73, the “Duration, minutes (o.5%)” value (ischiadic nerve of rats) was 72 min and the “Duration, minutes (1.0%)” value (ischiadic nerve of rats) was 111 min. The Relative efficiency (ischiadic nerve of rats) was 3.2 and the LD50 (in vivo [2]; po) was 430 mg/kg.
NCCON=C1CCCCC1=Cc1ccccc1 [Example 4, 1-(2'-Aminoethoxyimino)-2-benzalcyclohexane] showed a Therapeutic index (nicotine lethality; [4]) of 36.4, an ED50 (nicotine lethality; [5]) of 11 mg/kg and an LD50 (in vivo [1]; [6]) of 400 mg/kg.
In the case of CN(C)CCON=C1CCCC1=Cc1ccccc1 [Example 5, 2-Benzal-1-(2'-dimethylaminoethoxyimino)-cyclopentane], the “Duration, minutes (o.5%)” value (ischiadic nerve of rats) is reported as 68 min, the “Duration, minutes (1.0%)” value (ischiadic nerve of rats) is reported as 96 min and the Relative efficiency (ischiadic nerve of rats) is reported as 1.8. For the same compound, the LD50 (in vivo [2]; po) was 450 mg/kg.
In the case of CCN(CC)CCON=C1CCCC1=Cc1ccccc1 [Example 7, 2-Benzal-1-(2'-diethylaminoethoxyimino)-cyclopentane], the “Duration, minutes (o.5%)” value (ischiadic nerve of rats) is reported as 94 min, the “Duration, minutes (1.0%)” value (ischiadic nerve of rats) is reported as 127 min and the Relative efficiency (ischiadic nerve of rats) is reported as 1.8. The LD50 (in vivo [2]; po) was 210 mg/kg.
With CC(C)N(CCON=C1CCCC1=Cc1ccccc1)C(C)C [Example 8, 2-Benzal-1-(2'-diisopropylaminoethoxyimino)-cyclopentane] the “Duration, minutes (o.5%)” value (ischiadic nerve of rats) was 66 min, the “Duration, minutes (1.0%)” value (ischiadic nerve of rats) was 129 min and the Relative efficiency (ischiadic nerve of rats) was 1.1. For the same compound, the LD50 (in vivo [2]; po) was 450 mg/kg.
With CN(C)CCCON=C1CCCCCC1=Cc1ccccc1 [Example 10, 2-Benzal-1-(3'-dimethylaminopropoxyimino)-cycloheptane] the Relative efficiency (isolated rat-ileum) was 2.42 and the LD50 (in vivo [2]; [7]) was 550 mg/kg.
In the case of CC(C)N(CCON=C1CCCCCC1=Cc1ccccc1)C(C)C [Example 11, 2-Benzal-1-(2'-diisopropylaminoethoxyimino)-cycloheptane], the Relative efficiency (isolated rat-ileum) is reported as 3.01 and the LD50 (in vivo [2]; [7]) is reported as 325 mg/kg.
With CN(C)CCCON=C1CCCCCC1=Cc1ccc(Cl)cc1 [Example 12, 1-(3'-Dimethylaminopropoxyimino)-2-(p-chlorobenzal)-cycloheptane] the Therapeutic index (nicotine lethality; [4]) was 36.3, the ED50 (nicotine lethality; [5]) was 40 mg/kg and the LD50 (in vivo [1]; [6]) was 1450 mg/kg.
Work on COc1ccc(C=C2CCCCCC2=NOCCCN(C)C)cc1 [Example 13, 1-(3'-Dimethylaminopropoxyimino)-2-(p-methoxybenzal)-cycloheptane] yielded an LD50 (in vivo [1]; [3]) of 1000 mg/kg, an ED50 (tetrabenazine; po) of 70 mg/kg and a Therapeutic index (tetrabenazine; tetrabenazine antagonism) of 14.3. The Relative efficiency (isolated rat-ileum) was 1.96, the LD50 (in vivo [2]; [7]) was 1000 mg/kg and the ED50 (reserpine) was 80 mg/kg. For the same compound, the Therapeutic index (reserpine; reserpine antagonism) was 12.5.
For COc1ccccc1C=C1CCCCC1=NOCCCN(C)C [Example 15, 1-(3'-Dimethylaminopropoxyimino)-2-(o-methoxybenzal)-cyclohexane], the “Duration, minutes (o.5%)” value (ischiadic nerve of rats) was 92 min, the “Duration, minutes (1.0%)” value (ischiadic nerve of rats) was 160 min and the Relative efficiency (ischiadic nerve of rats) was 1.7. The LD50 (in vivo [2]; po) was 880 mg/kg.
COc1ccccc1C=C1CCCCC1=NOCC(C)CN(C)C (stereo not drawn) [Example 18, 1-(2'-Methyl-3'-dimethylaminopropoxyimino)-2-(o-methoxybenzal)-cyclohexane] gave a Relative efficiency (isolated rat-ileum) of 2.43 and an LD50 (in vivo [2]; [7]) of 650 mg/kg.
With CN(C)CCCON=C1CCCCC1=Cc1ccc(Cl)cc1 [Example 19, 1-(Dimethylaminopropoxyimino)-2-(p-chlorobenzal)-cyclohexane] the LD50 (in vivo [1]; [3]) was 900 mg/kg, the ED50 (tetrabenazine; po) was 34 mg/kg and the Therapeutic index (tetrabenazine; tetrabenazine antagonism) was 26.5. It also gave an ED50 (reserpine) of over 180 mg/kg and a Therapeutic index (reserpine; reserpine antagonism) of 5.0.
In the case of CN(C)CCCON=C1CCCCC1=Cc1ccccc1Cl [Example 21, 1-(Dimethylaminopropoxyimino)-2-(o-chlorobenzal)-cyclohexane], the LD50 (in vivo [1]; [3]) is reported as 1500 mg/kg, the ED50 (tetrabenazine; po) is reported as 22 mg/kg and the Therapeutic index (tetrabenazine; tetrabenazine antagonism) is reported as 68.2. It also gave an ED50 (reserpine) of over 100 mg/kg and a Therapeutic index (reserpine; reserpine antagonism) of 15.0.
Work on CN(C)CCON=C1CCCC1=Cc1ccccc1 [Example 27, 2-Benzal-1-(2'-dimethylaminoethoxyimino)-cyclopentane] yielded a Therapeutic index (nicotine lethality; [4]) of 12.8, an ED50 (nicotine lethality; po) of 47 mg/kg and an LD50 (in vivo [1]; [3]) of 600 mg/kg. The ED50 (tetrabenazine; po) was 120 mg/kg, the Therapeutic index (tetrabenazine; tetrabenazine antagonism) was 5.0 and the ED50 (reserpine) was 18 mg/kg. It also gave a Therapeutic index (reserpine; reserpine antagonism) of 33.0.
In the case of CCN(CC)CC(=O)Nc1c(C)cccc1C [Lidocaine, reference compound], the “Duration, minutes (o.5%)” value (ischiadic nerve of rats) is reported as 28 min and the “Duration, minutes (1.0%)” value (ischiadic nerve of rats) is reported as 52 min.
Compound COc1ccc(Cc2nccc3cc(OC)c(OC)cc23)cc1OC [Papaverine, reference compound] has an LD50 (in vivo [2]; [7]) of 367 mg/kg.
For OC(CCN1CCCCC1)(c1ccccc1)C1CCCCC1 (stereo not drawn) [Trihexyphenidyl (Artane), Trihexyphenidyl, reference compound], the ED50 (nicotine lethality; [5]) was 40 mg/kg.
